Reference: patent US4473573A, “N-(2-methoxyethyl)-noroxymorphone and pharmaceutical compositions for relieving pain containing same” (Boehringer Ingelheim KG, priority 1982, dated 1984)
Counter-ions that a name gives are not always drawn. Like-named read-outs stand apart in the source and are kept apart here.

Key:
[1] = writhing test (analgesic property); assay type: in vivo; settings: s. c.; for ED50: sc
[2] = tested on: morphine-dependent monkeys; test: withdrawal test in morphine-dependent monkeys; assay type: in vivo
Description: (§1) The non-morphine-like activity profile can be recognized from the absence of typical side effects produced by opiates.
In morphine-dependent monkeys there is found to be increased sensitivity of morphine antagonists which trigger withdrawal symptoms, dependent upon dosage.

acute toxicity (LD50) = settings: mouse, in vivo, sc; s. c., mice
Description: (§2) The comparison values are 1600 for the standard analgesic morphine and 169 for the agonist-antagonist pentazocine which is used therapeutically as an analgesic.

mice [3] = test: inhibition of locomotion (sedation); assay type: in vivo; settings: up to 100 mg/kg for Formula I, comparison substances in or near the therapeutic dosage range
Description: Another advantage of the compound of Formula I over newer substances, not yet used therapeutically, selected from the opioid kappa agonists of the benzomorphane series, to which a high therapeutic range is also ascribed (for example, 1800 for ethylketazocine), is the absence of any strong sedation. This can be recognized in the comparison substances as an inhibition of locomotion in mice in or near the therapeutic dosage range. In the compound of Formula I, however, this effect was not observed in the range tested up to very high doses of 100 mg/kg.

mice [4] = test: therapeutic range based upon the effect in the writhing test; assay type: in vivo; settings: LD50 s. c. based upon the effect in the writhing test
Description: as §2

[5] = tested on: analgesia produced by morphine; test: Haffner test, reversal of the analgesia produced by morphine; assay type: in vivo; settings: s. c.; for ED50: sc, read-out: AD50, Haffner test
[6] = activity compared with the compound of Formula I (test not named); settings: for activity relative to the compound of Formula I: compound of Formula I = 1; for effect of etherification of the phenolic hydroxy group on activity: compared with Formula I
[7] = Straub morphine tail phenomenon / compulsive circular motion (typical opiate side effects); assay type: in vivo; settings: hydrochloride
Description: as §1

[8] = cited from earlier work
mice [9] = settings: ascribed; opioid kappa agonist of the benzomorphane series; cited from earlier work

COCCN1CC[C@]23c4c5ccc(O)c4O[C@H]2C(=O)CC[C@@]3(O)[C@H]1C5 [Formula I, N-(2-methoxyethyl)-noroxymorphone]
times stronger than morphine, writhing test ([1]; relative to morphine): about 36 times
times stronger than oxymorphone, writhing test ([1]; relative to oxymorphone): about 2.5 times
ED50 [1]: 0.013 mg/kg
antagonist strength compared with naloxone ([2]; morphine-dependent monkeys, triggering of withdrawal symptoms): as strong as naloxone
LD50 (acute toxicity (LD50)): 1350 mg/kg
inhibition of locomotion (strong sedation) (mice [3]): not observed
therapeutic range (mice [4]): 103,846
antagonistic activity relative to naloxone ([5]; Haffner test, naloxone = 1): about 1/10
ED50 [5]: 0.3 mg/kg

COCCCN1CC[C@]23c4c5ccc(O)c4O[C@H]2C(=O)CC[C@@]3(O)[C@H]1C5 [Formula IIId]
activity relative to the compound of Formula I [6]: 1/25

COCCN1CC[C@]23c4c5ccc(OC)c4O[C@H]2C(=O)CC[C@@]3(O)[C@H]1C5 [Formula IIIb]
effect of etherification of the phenolic hydroxy group on activity [6]: reduces the activity
activity relative to the compound of Formula I [6]: 1/84

CCOCCN1CC[C@]23c4c5ccc(OC)c4O[C@H]2C(=O)CC[C@@]3(O)[C@H]1C5 [Formula IIIc]
effect of etherification of the phenolic hydroxy group on activity [6]: reduces the activity

CN1CC[C@]23c4c5ccc(O)c4O[C@H]2C(=O)CC[C@@]3(O)[C@H]1C5 [oxymorphone]
ED50 [1]: 0.032 mg/kg

CC(C)=CCN1CCC2(C)c3cc(O)ccc3CC1C2C (centres unmarked) [pentazocine]
therapeutic range (mice [4]): 169

C=CCN1CC[C@]23c4c5ccc(O)c4O[C@H]2C(=O)CC[C@@]3(O)[C@H]1C5 [naloxone, reference compound]
ED50 [5]: 0.03 mg/kg

COCCN1CC[C@]23c4c5ccc(O)c4O[C@H]2C(=O)CC[C@@]3(O)[C@H]1C5 [N-(2-methoxyethyl)-noroxymorphone hydrochloride]
relieving the withdrawal symptoms in morphine-dependent monkeys ([2]; after morphine has been withdrawn, hydrochloride): not capable of relieving the withdrawal symptoms
effect on withdrawal symptoms (antagonist behaviour) ([2]; morphine-dependent monkeys, hydrochloride): aggravates the withdrawal symptoms
Straub morphine tail phenomenon [7]: does not show
compulsive circular motion [7]: does not show

CN1CC[C@]23c4c5ccc(O)c4O[C@H]2[C@@H](O)C=C[C@H]3[C@H]1C5 [morphine, reference compound]
ED50, writhing test [1]: 0.47 mg/kg
therapeutic range (mice [4]): 1600

CCOCCN1CC[C@]23c4c5ccc(O)c4O[C@H]2C(=O)CC[C@@]3(O)[C@H]1C5 [Formula IIIa]
activity relative to the compound of Formula I [6]: 1/20

O=C1CC[C@@]2(O)[C@H]3Cc4ccc(O)c5c4[C@@]2(CCN3CC2CC2)[C@H]1O5 [naltrexone]
antagonist character ([8]; in vivo): pure antagonists
analgesic activity ([8]; pure antagonists): no analgesic activity

CC[C@]12CCN(CC3CC3)[C@H](C(=O)c3ccc(O)cc31)[C@@H]2C [ethylketazocine]
therapeutic range (mice [9]): 1800
